Converted amounts (≈) assume the structure as drawn. The source made the active and inactive calls. No cut-off for these calls is given here. *1 amine or outer side, *2 acyl side, *3 side chain or, on linkers, in order; H or OH if unused. Where a SMILES comes first, the peptide text is derived from it. Bridges are numbered along the chain shown (N, C = ends). [ ]: non-standard residue; d: D form. The star is where a group is joined. Phe(3R-OH) = O=C([C@@H](N[*:1])[C@H](O[*:3])c1ccccc1)[*:2]; NMeTrp(4-OMe) = CN[C@@H](Cc1c[nH]c2cccc(OC)c12)C(=O)O; NMeW = CN[C@@H](Cc1c[nH]c2ccccc12)C(=O)O; NMe2Val = CC(C)[C@@H](C(=O)*)N(C)C; NMeT = CN[C@H](C(=O)O)[C@@H](C)O; NMeL = CN[C@@H](CC(C)C)C(=O)O; NMeNva = CCC[C@H](NC)C(=O)O; NMeV = CN[C@H](C(=O)O)C(C)C; NMeS = CN[C@@H](CO)C(=O)O; Pip = O=C(O)[C@@H]1CCCCN1; Sar = CNCC(=O)O
What was measured:
[1] = system: Mycobacterium tuberculosis; experiment: Antimycobacterial activity against Mycobacterium tuberculosis mc2 6230 measured after 7 days; format: functional; conditions: mc2 6230, 168 h, time 7 day
[2] = system: Mycobacterium tuberculosis; experiment: Antimycobacterial activity against Mycobacterium tuberculosis mc2 6230 assessed as log reduction in bacteria measured up to 21 days by Time kill assay; format: functional, organism-based; conditions: time day <=21
Enterococcus faecium = experiment: Antibacterial activity against Enterococcus faecium ATCC 6569 assessed as bacterial growth inhibition incubated for 18 to 20 hrs by broth microdilution method; format: functional; conditions: time 18-20 hrs
Streptococcus pneumoniae = experiment: Antibacterial activity against Streptococcus pneumoniae ATCC 49619 assessed as bacterial growth inhibition incubated for 18 to 20 hrs by broth microdilution method; format: functional; conditions: time 18-20 hrs
Escherichia coli = experiment: Antibacterial activity against Escherichia coli K-12 MG1655 assessed as bacterial growth inhibition incubated for 18 to 20 hrs by broth microdilution method; format: functional; conditions: time 18-20 hrs
Staphylococcus aureus [3] = experiment: Antibacterial activity against methicillin-sensitive Staphylococcus aureus ATCC 29213 assessed as bacterial growth inhibition incubated for 18 to 20 hrs by broth microdilution method; format: functional; conditions: time 18-20 hrs
[4] = system: Providencia alcalifaciens; experiment: Antibacterial activity against Providencia alcalifaciens ATCC 9886 assessed as bacterial growth inhibition incubated for 18 to 20 hrs by broth microdilution method; format: functional; conditions: time 18-20 hrs
Salmonella enterica = experiment: Antibacterial activity against Salmonella enterica ATCC 13311 assessed as bacterial growth inhibition incubated for 18 to 20 hrs by broth microdilution method; format: functional; conditions: time 18-20 hrs
Klebsiella aerogenes = experiment: Antibacterial activity against Klebsiella aerogenes ATCC 35029 assessed as bacterial growth inhibition incubated for 18 to 20 hrs by broth microdilution method; format: functional; conditions: time 18-20 hrs
Klebsiella pneumoniae = experiment: Antibacterial activity against Klebsiella pneumoniae ATCC 700603 assessed as bacterial growth inhibition incubated for 18 to 20 hrs by broth microdilution method; format: functional; conditions: time 18-20 hrs
[5] = system: Yersinia pseudotuberculosis; experiment: Antibacterial activity against Yersinia pseudotuberculosis ATCC 6904 assessed as bacterial growth inhibition incubated for 18 to 20 hrs by broth microdilution method; format: functional; conditions: time 18-20 hrs
Shigella sonnei = experiment: Antibacterial activity against Shigella sonnei ATCC 25931 assessed as bacterial growth inhibition incubated for 18 to 20 hrs by broth microdilution method; format: functional; conditions: time 18-20 hrs
[6] = system: Staphylococcus epidermidis; experiment: Antibacterial activity against Staphylococcus epidermidis ATCC 14990 assessed as bacterial growth inhibition incubated for 18 to 20 hrs by broth microdilution method; format: functional; conditions: time 18-20 hrs
Pseudomonas aeruginosa = experiment: Antibacterial activity against Pseudomonas aeruginosa ATCC 27853 assessed as bacterial growth inhibition incubated for 18 to 20 hrs by broth microdilution method; format: functional; conditions: time 18-20 hrs
Acinetobacter baumannii = experiment: Antibacterial activity against Acinetobacter baumannii ATCC 19606 assessed as bacterial growth inhibition incubated for 18 to 20 hrs by broth microdilution method; format: functional; conditions: time 18-20 hrs
Vibrio cholerae = experiment: Antibacterial activity against Vibrio cholerae A1552 El Tor assessed as bacterial growth inhibition incubated for 18 to 20 hrs by broth microdilution method; format: functional; conditions: time 18-20 hrs
Enterococcus faecalis = experiment: Antibacterial activity against Enterococcus faecalis ATCC 29212 assessed as bacterial growth inhibition incubated for 18 to 20 hrs by broth microdilution method; format: functional; conditions: time 18-20 hrs
Listeria ivanovii = experiment: Antibacterial activity against Listeria ivanovii BAA-139 assessed as bacterial growth inhibition incubated for 18 to 20 hrs by broth microdilution method; format: functional; conditions: time 18-20 hrs
Bacillus subtilis = experiment: Antibacterial activity against Bacillus subtilis ATCC 6051 assessed as bacterial growth inhibition incubated for 18 to 20 hrs by broth microdilution method; format: functional; conditions: time 18-20 hrs
Staphylococcus aureus [7] = experiment: Antibacterial activity against methicillin-resistant Staphylococcus aureus BAA-44 assessed as bacterial growth inhibition incubated for 18 to 20 hrs by broth microdilution method; format: functional; conditions: time 18-20 hrs
Brucella anthropi = experiment: Antibacterial activity against Ochrobactrum anthropi ATCC 49687 assessed as bacterial growth inhibition incubated for 18 to 20 hrs by broth microdilution method; format: functional; conditions: time 18-20 hrs

CCC[C@H]1C(=O)N(C)[C@@H](Cc2c[nH]c3ccccc23)C(=O)N[C@@H](C(C)C)C(=O)N[C@@H](Cc2ccccc2)C(=O)N[C@@H](C(C)C)C(=O)O[C@H](C)[C@H](NC(=O)[C@@H](NC(=O)[C@@H](NC)C(C)C)C(C)C)C(=O)N(C)[C@@H]([C@@H](C)O)C(=O)N[C@@H](C(C)C)C(=O)N(C)[C@@H](CC(C)C)C(=O)N[C@@H](C(C)C)C(=O)N1C (H-[NMeV]VT[NMeT]V[NMeL]V[NMeNva][NMeW]VFV; ester 3-C) was tested, and the MIC [1] was 0.5 µM (≈ 0.706 µg/mL).
With CN[C@H](C(=O)N[C@H](C(=O)N[C@@H]1C(=O)N(C)[C@@H]([C@@H](C)O)C(=O)N[C@@H](C(C)C)C(=O)N(C)[C@@H](CC(C)C)C(=O)N[C@@H](C(C)C)C(=O)N(C)[C@@H](CO)C(=O)N(C)[C@@H](Cc2c[nH]c3ccccc23)C(=O)N[C@@H](C(C)C)C(=O)N[C@@H](Cc2ccccc2)C(=O)N[C@@H](C(C)C)C(=O)O[C@@H]1C)C(C)C)C(C)C (H-[NMeV]VT[NMeT]V[NMeL]V[NMeS][NMeW]VFV; ester 3-C) the MIC [1] was 2 µM (≈ 2.8 µg/mL).
For CN[C@H](C(=O)N[C@H](C(=O)N[C@@H]1C(=O)N(C)[C@@H]([C@@H](C)O)C(=O)N[C@@H](C(C)C)C(=O)N(C)[C@@H](CC(C)C)C(=O)N[C@@H](C(C)C)C(=O)N(C)[C@@H](C(C)C)C(=O)N(C)[C@@H](Cc2c[nH]c3ccccc23)C(=O)N[C@@H](C(C)C)C(=O)N[C@@H](Cc2ccccc2)C(=O)N[C@@H](C(C)C)C(=O)O[C@@H]1C)C(C)C)C(C)C (H-[NMeV]VT[NMeT]V[NMeL]V[NMeV][NMeW]VFV; ester 3-C), the MIC [1] was 0.25 µM (≈ 0.353 µg/mL) and the Activity [2] was “Active”.
CN[C@H](C(=O)N[C@H](C(=O)N[C@@H]1C(=O)N(C)[C@@H]([C@@H](C)O)C(=O)N[C@@H](C(C)C)C(=O)N(C)[C@@H](CC(C)C)C(=O)N[C@@H](C(C)C)C(=O)N(C)[C@@H](Cc2c[nH]c3ccccc23)C(=O)N(C)[C@@H](Cc2c[nH]c3ccccc23)C(=O)N[C@@H](C(C)C)C(=O)N[C@@H](Cc2ccccc2)C(=O)N[C@@H](C(C)C)C(=O)O[C@@H]1C)C(C)C)C(C)C (H-[NMeV]VT[NMeT]V[NMeL]V[NMeW][NMeW]VFV; ester 3-C) gave an MIC [1] of 0.5 µM (≈ 0.75 µg/mL).
In the case of CN[C@H](C(=O)N[C@H](C(=O)N[C@@H]1C(=O)N(C)[C@@H]([C@@H](C)O)C(=O)N[C@@H](C(C)C)C(=O)N(C)[C@@H](CC(C)C)C(=O)N[C@@H](C(C)C)C(=O)N2CCCC[C@H]2C(=O)N(C)[C@@H](Cc2c[nH]c3ccccc23)C(=O)N[C@@H](C(C)C)C(=O)N[C@@H](Cc2ccccc2)C(=O)N[C@@H](C(C)C)C(=O)O[C@@H]1C)C(C)C)C(C)C (H-[NMeV]VT[NMeT]V[NMeL]V[Pip][NMeW]VFV; ester 3-C), the MIC [1] is reported as 4 µM (≈ 5.64 µg/mL).
For CN[C@H](C(=O)N[C@H](C(=O)N[C@@H]1C(=O)N(C)[C@@H]([C@@H](C)O)C(=O)N[C@@H](C(C)C)C(=O)N(C)[C@@H](CC(C)C)C(=O)N[C@@H](C(C)C)C(=O)N(C)CC(=O)N(C)[C@@H](Cc2c[nH]c3ccccc23)C(=O)N[C@@H](C(C)C)C(=O)N[C@@H](Cc2ccccc2)C(=O)N[C@@H](C(C)C)C(=O)O[C@@H]1C)C(C)C)C(C)C (H-[NMeV]VT[NMeT]V[NMeL]V[Sar][NMeW]VFV; ester 3-C), the MIC [1] was 8 µM (≈ 11 µg/mL).
COc1cccc2[nH]cc(C[C@H]3C(=O)N[C@@H](C(C)C)C(=O)N[C@@H]([C@H](O)c4ccccc4)C(=O)N[C@@H](C(C)C)C(=O)O[C@H](C)[C@H](NC(=O)[C@@H](NC(=O)[C@H](C(C)C)N(C)C)C(C)C)C(=O)N(C)[C@@H]([C@@H](C)O)C(=O)N[C@@H](C(C)C)C(=O)N(C)[C@@H](CC(C)C)C(=O)N[C@@H](C(C)C)C(=O)N(C)[C@@H](C(C)C)C(=O)N3C)c12 (NMe2Val-VT[NMeT]V[NMeL]V[NMeV][NMeTrp(4-OMe)]V[Phe(3R-OH)]V; ester 2-C) showed an MIC [1] of 0.5 µM (≈ 0.736 µg/mL).
Molecule CN[C@@H]1[C@H](O[C@H]2[C@H](O[C@H]3[C@H](O)[C@@H](O)[C@H](N=C(N)N)[C@@H](O)[C@@H]3N=C(N)N)O[C@@H](C)[C@]2(O)C=O)O[C@@H](CO)[C@H](O)[C@H]1O [STREPTOMYCIN] has an MIC (Enterococcus faecium) of 16 µM (≈ 9.31 µg/mL), an MIC (Streptococcus pneumoniae) of 48 µM (≈ 27.9 µg/mL) and an MIC (Escherichia coli) of 0.25 µM (≈ 0.145 µg/mL). For the same molecule, the MIC (Staphylococcus aureus [3]) was 2.7 µM (≈ 1.57 µg/mL), the MIC [4] was 9.3 µM (≈ 5.41 µg/mL) and the MIC (Salmonella enterica) was 0.33 µM (≈ 0.192 µg/mL). For the same molecule, the MIC (Klebsiella aerogenes) was 0.25 µM (≈ 0.145 µg/mL), the MIC (Klebsiella pneumoniae) was 0.17 µM (≈ 0.0989 µg/mL) and the MIC [5] was 6.7 µM (≈ 3.9 µg/mL). The MIC (Shigella sonnei) was 0.25 µM (≈ 0.145 µg/mL), the MIC [6] was 2.7 µM (≈ 1.57 µg/mL) and the MIC (Pseudomonas aeruginosa) was 16 µM (≈ 9.31 µg/mL). It also gave an MIC (Acinetobacter baumannii) of 128 µM (≈ 74.4 µg/mL), an MIC (Vibrio cholerae) of 13 µM (≈ 7.56 µg/mL) and an MIC (Enterococcus faecalis) of 128 µM (≈ 74.4 µg/mL). It also gave an MIC (Listeria ivanovii) of 4 µM (≈ 2.33 µg/mL), an MIC (Bacillus subtilis) of 128 µM (≈ 74.4 µg/mL) and an MIC (Staphylococcus aureus [7]) of 9.3 µM (≈ 5.41 µg/mL). For the same molecule, the MIC (Brucella anthropi) was 128 µM (≈ 74.4 µg/mL).

Reference: ChEMBL document CHEMBL5046300, “Potent Bactericidal Antimycobacterials Targeting the Chaperone ClpC1 Based on the Depsipeptide Natural Products Ecumicin and Ohmyungsamycin A” (2022)
